Test results reported in patent US7897781B2, “Cold menthol receptor-1 antagonists” (Janssen Pharmaceutica NV, priority 2006, dated 2011).
pIC50: −log10 of the molar value. “And” between values parts separate entries of the source, which are not always exact repeats. Equal values may be shown once.

Columns and labels:
[1] = test system: Sprague-Dawley rats; test: CFA-induced paw radiant heat hypersensitivity; format: in vivo, rat; conditions: 30 mg/kg p.o.
Protocol: Intraplantar injection of Complete Freund's Adjuvant (CFA) in rodents results in a long-lasting inflammatory reaction, characterized by a pronounced hypersensitivity to both thermal and mechanical stimuli. This hypersensitivity peaks between 24-72 hours following injection and can last for several weeks. […] This paradigm also may be conducted with a multiple dosing or a prophylactic dosing regime designed to alter the course of hyperalgesia development. This test predicts the analgesic, anti-allodynic and antihyperalgesic effect of numerous effective clinical agents, including NSAIDS such as acetaminophen, aspirin and ibuprofen, and opioids such as morphine.
Each rat was placed in a test chamber on a warm glass surface and allowed to acclimate for approximately 10 minutes. A radiant thermal stimulus (beam of light) was then focused through the glass onto the plantar surface of each hind paw in turn. The thermal stimulus was automatically shut off by a photoelectric relay when the paw was moved or when the cut-off time was reached (20 seconds for radiant heat at ˜5 Amps). An initial (baseline) response latency to the thermal stimulus was recorded for each animal prior to the injection of CFA. Twenty-four hours following intraplantar CFA injection, the response latency of the animal to the thermal stimulus was then re-evaluated and compared to the animal's baseline response time. […] Immediately following the post-CFA latency assessment, test compound or vehicle (usually Solutol, hydroxypropyl methylcellulose, hydroxypropyl beta-cyclodextrin or PEG-400) was administered i.p. or p.o. to rats. […] The percent reversal (% R) of hypersenstivitiy was calculated according to the following formula: % Reversal=(Treatment Response−CFA Response)/(Baseline Response−CFA Response)×100.

[2] = biological target: T1, canine TRPM8 (Canis lupus familiaris, UniProt Q1A7N1); test: In vitro canine TRPM8 functional assay (Ca2+-sensitive dye, icilin activation; Table 4 TRPM8 Screening); format: cell-based; conditions: HEK293 cells expressing canine TRPM8, icilin activation; for % I (1 μM): compound at 1 μM
T1 construct: expressed in transfected cells
T1 sequence (Q1A7N1 1-1104): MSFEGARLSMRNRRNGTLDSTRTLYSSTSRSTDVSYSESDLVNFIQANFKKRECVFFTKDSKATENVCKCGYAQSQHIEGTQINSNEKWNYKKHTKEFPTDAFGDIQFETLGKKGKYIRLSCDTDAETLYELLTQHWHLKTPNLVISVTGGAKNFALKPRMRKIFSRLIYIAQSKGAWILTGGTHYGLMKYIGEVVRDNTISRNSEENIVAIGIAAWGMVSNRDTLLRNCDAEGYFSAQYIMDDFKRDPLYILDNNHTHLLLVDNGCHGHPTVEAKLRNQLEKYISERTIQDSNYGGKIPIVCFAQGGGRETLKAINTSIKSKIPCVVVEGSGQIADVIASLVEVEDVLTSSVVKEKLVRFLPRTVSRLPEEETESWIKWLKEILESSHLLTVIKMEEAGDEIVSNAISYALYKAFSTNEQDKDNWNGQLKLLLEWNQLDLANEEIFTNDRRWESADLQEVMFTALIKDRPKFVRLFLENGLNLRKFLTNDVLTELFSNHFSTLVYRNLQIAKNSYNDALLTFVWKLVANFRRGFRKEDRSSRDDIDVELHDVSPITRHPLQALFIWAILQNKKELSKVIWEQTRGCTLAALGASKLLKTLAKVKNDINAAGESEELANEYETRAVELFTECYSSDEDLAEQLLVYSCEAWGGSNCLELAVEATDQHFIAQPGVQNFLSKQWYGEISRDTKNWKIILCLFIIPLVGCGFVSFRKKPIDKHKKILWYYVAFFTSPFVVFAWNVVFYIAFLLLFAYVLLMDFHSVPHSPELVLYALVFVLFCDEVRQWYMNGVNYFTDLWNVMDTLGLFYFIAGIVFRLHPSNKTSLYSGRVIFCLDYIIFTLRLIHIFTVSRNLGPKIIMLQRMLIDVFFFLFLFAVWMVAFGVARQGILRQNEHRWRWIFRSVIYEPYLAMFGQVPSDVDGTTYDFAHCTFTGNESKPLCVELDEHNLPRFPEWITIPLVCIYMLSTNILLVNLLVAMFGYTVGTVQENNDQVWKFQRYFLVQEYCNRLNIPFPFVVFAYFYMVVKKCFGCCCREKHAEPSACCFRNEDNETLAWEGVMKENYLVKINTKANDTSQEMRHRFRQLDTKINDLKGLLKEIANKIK
Protocol: The functional activity of compounds of Formula (I) was determined by measuring changes in intracellular calcium concentration using a Ca^2+-sensitive fluorescent dye. The changes in fluorescent signal were monitored by a fluorescence plate reader, either a FLIPR™ (Molecular Devices) or FDSS (Hamamatsu).
HEK293 cells stably expressing canine TRPM8 were routinely grown as monolayers in Dulbecco's minimum essential medium supplemented with 10% FBS, 1 mM L-glutamine, 100 units/mL penicillin, 100 ug/mL streptomycin and 400 μg/mL G418. Cells were maintained in 5% CO2 at 37° C. At 24 hrs prior to assay, cells were seeded in clear-base poly-D-lysine coated 384-well plates (BD Biosciences, NJ, USA) at a density of 5,000 cells per well in culture medium and grown overnight in 5% CO2 at 37° C. On assay day, growth media was removed and cells were loaded with Calcium 3 Dye (Molecular Devices) for 35 min at 37° C., under 5% CO2 and then for 25 min at room temperature and atmosphere. Subsequently, cells were tested for agonist-induced increases in intracellular Ca^2+ levels using FLIPR™ or FDSS. Cells were challenged with a compound of Formula (I) (at varying concentrations) and intracellular Ca^2+ was measured for 5 min prior to the addition of icilin to all wells to achieve a final concentration which produces approximately an 80% maximal response.
Basal FI was subtracted prior to normalizing data to percent of maximal response. Curves were generated using the average of quadruplicate wells for each data point, were analyzed using nonlinear regression of either sigmoidal dose response or sigmoidal dose response (variable slope). Finally, the EC50 and IC50 values were calculated with the best-fit dose curve determined by GraphPad Prism.

[3] = biological target: T1, canine TRPM8; test: TRPM8 patch clamp assays; format: cell-based; conditions: whole-cell patch clamp, HEK293
Protocol: For patch clamp experiments, HEK293 cells stably transfected with canine TRPM8 were cultured in DMEM supplemented with 10% fetal bovine serum, 100 units/ml penicillin, 100 μg/ml streptomycin and 1 mg/ml G418. Cells were maintained at 37° C. and in 5% CO2.
The extracellular solution contained (in mM): NaCl, 132; EGTA, 1; KCl, 5.4; MgCl2, 0.8; HEPES, 10; glucose, 10; pH=7.4. Recordings were performed using the conventional whole-cell patch clamp technique, 1-2 days after plating cells onto glass coverslips at densities appropriate for single cell recording. Currents were amplified by a patch clamp amplifier and filtered at 2 kHz (Axopatch 200B, Molecular Devices, Union City, Calif.). Menthol (100 μM) was applied to the cell at 0.5 ml/min via a gravity-fed perfusion system. […]
In experiments where temperatures were varied, temperature ramps were generated by cooling the perfusate in an in-line cooler (Model SC-20, Warner Instruments, Hamden, Conn.) controlled by a temperature controller (Model CL-100, Warner Instruments). The temperature in the vicinity of the recorded cell was measured with a custom-made miniature thermo-microprobe connected to a monitoring thermometer (Model TH-8, Physitemp, Clifton, N.J.), and sampled using Digidata 1322A and pClamp 9.0 (Molecular Devices), as were the currents concurrently measured in the whole-cell patch clamp mode. […]

[4] = test system: rats; test: Reversal of icilin-induced behaviors in rats; format: in vivo, rat; conditions: 30 mg/kg p.o., 1 h post-icilin
Protocol: In this paradigm, icilin-induced shaking was counted for 10 minutes followed by administration of a compound of Formula (I). The diminution of shaking behavior is represented as a percent inhibition relative to icilin-induced shakes in the absence of test compound administration, as described by the following formula: % Inhibition=[1−(WDS count following test compound dose/WDS count prior to test compound dose)]×100.

[5] = test system: male SD rats; test: Chronic constriction injury (CCI)-induced model of neuropathic pain, acetone-induced hypersensitivity; format: in vivo, rat; conditions: 30 mg/kg p.o., preRx 1 hr
Protocol: Through the mesh floor a series of five applications of acetone (0.05 mL/application) was sprayed onto the bottom of the paw using a multidose syringe device. A positive response took the form of an abrupt withdrawal or lifting of the paw. The percentage of positive responses from the five trials represented the individual's overall response that was then averaged over the entire treatment group. […] An ascending dose response relationship (as in Table 10 below) was generated by addition of successive doses of test compound followed by re-assessment of behavior.

Molecule	% I (0.5 μM) ([2]; compound at 0.5 μM)	% I (1 μM) [2] [%]	also measured
CC(C)OP(=O)(OC(C)C)C(Cc1ccc(Cl)c(F)c1)c1sc2ccccc2c1Br (stereo not drawn) [Cpd 190]			% Reversal ([1]; time 1 h): 45%
(S)-[1-(3-Bromo-benzo[b]thiophen-2-yl)-2-(4-trifluoromethoxy-phenyl)-ethyl]-phosphonic acid diisopropyl ester [Cpd 236]			% Reversal ([1]; time 2 h): 25%
(S)-[1-(3-Bromo-benzo[b]thiophen-2-yl)-2-(4-fluoro-phenyl)ethyl]-phosphonic acid diisopropyl ester [Cpd 239]	103, 103%		pIC50 ([2]; eight-point dose-response): 7.43 and 7.57 and 7.51; pIC50 ([3]; read-out: Cold (10° C.) IC50, mode of activation cold 10° C.): 8.24; pIC50 ([3]; read-out: Menthol (100 μM) IC50, mode of activation menthol 100 μM, 22° C.): 8.52; % Inhibition [4]: 48.4%; % of Allodynic Baseline [5]: 29.4%; % Reversal ([1]; time 2 h): 36%
CC(C)OP(=O)(OC(C)C)C(Cc1cc(C(F)(F)F)ccc1F)c1sc2ccccc2c1Br (stereo not drawn) [Cpd 335]			% Reversal ([1]; time 1 h): 0%
CC(C)OP(=O)(OC(C)C)C(Cc1ccc(F)cc1)c1sc2ccccc2c1Br (stereo not drawn) [Cpd 197]		100	% Reversal ([1]; time 2 h): 23%
CCOP(=O)(OCC)C(Cc1ccc(F)c(Cl)c1)c1sc2ccccc2c1Br (racemic) [Cpd 244]			% Reversal ([1]; time 2 h): 45%
CCOP(=O)(OCC)C(Cc1ccc(SC)cc1)c1sc2ccccc2c1Cl (racemic) [Cpd 299]			% Reversal ([1]; time 1 h): 23%
CCOP(=O)(OCC)C(Cc1ccc(F)c(C(F)(F)F)c1)c1sc2ccccc2c1Cl (racemic) [Cpd 298]	99%		% Reversal ([1]; time 1 h): 20%
(R)-[1-(3-Bromo-benzo[b]thiophen-2-yl)-2-(4-trifluoromethoxy-phenyl)ethyl]-phosphonic acid diisopropyl ester [Cpd 237]	96% and 70%		
CC(C)OP(=O)(OC(C)C)C(Cc1cc(C(F)(F)F)cc(Cl)c1F)c1cc2ccccc2s1 (stereo not drawn) [Cpd 126]		100	
CCOP(=O)(OCC)C(Cc1ccccc1C(F)(F)F)c1sc2ccccc2c1Cl (racemic) [Cpd 279]	97%		
CC(C)OP(=O)(OC(C)C)C(Cc1ccccc1F)c1sc2cccc(Br)c2c1Br (stereo not drawn) [Cpd 198]		98	
CCOP(=O)(OCC)C(Cc1ccccc1Br)c1sc2ccccc2c1C (stereo not drawn) [Cpd 66]		100	
CCOP(=O)(OCC)C(Cc1cc(C(F)(F)F)cc(C(F)(F)F)c1)c1sc2ccccc2c1Cl (racemic) [Cpd 282]	100%		
CCOP(=O)(OCC)C(Cc1cc(C(F)(F)F)ccc1F)c1sc2ccccc2c1C (stereo not drawn) [Cpd 67]		100	
CC(C)OP(=O)(OC(C)C)C(Cc1cc(C(F)(F)F)cc(C(F)(F)F)c1)c1sc2ccccc2c1Cl (racemic) [Cpd 171]	95%		

Molecule	% I (0.5 μM) ([2]; compound at 0.5 μM)	% I (1 μM) [2] [%]	also measured
CC(C)OP(=O)(OC(C)C)C(Cc1cccc(O)c1)c1sc2ccccc2c1Br (stereo not drawn) [Cpd 325]	97%		
CC(C)OP(=O)(OC(C)C)C(Cc1ccc(F)c(C(F)(F)F)c1)c1c(Br)c2ccccc2n1C(=O)OC(C)(C)C (stereo not drawn) [Cpd 327, 3-Bromo-2-[1-(diisopropoxy-phosphoryl)-2-(4-fluoro-3-trifluoromethyl-phenyl)-ethyl]-indole-1-carboxylic acid tert-butyl ester]			inhibition at 0.5 µM ([2]; compound at 0.5 μM, read-out: % I (0.5 μM)): 44%
[2-(3,4-Difluoro-phenyl)-1-(3-methyl-benzo[b]thiophene-2-yl)-ethyl]-[3-(4-methoxy-phenyl)-propyl]-phosphonic acid ethyl ester [Cpd 135]		90	
CCCS(=O)(=O)n1c(C(Cc2ccc(F)c(C(F)(F)F)c2)P(=O)(OC(C)C)OC(C)C)c(Br)c2ccccc21 (stereo not drawn) [Cpd 332]	72%		
CC(C)OP(=O)(OC(C)C)[C@H](Cc1ccc(F)c(C(F)(F)F)c1)c1sc2ccccc2c1Br [Cpd 243, (R)-[1-(3-Bromo-benzo[b]thiophen-2-yl)-2-(4-fluoro-3-trifluoromethylphenyl)-ethyl]-phosphonic acid diisopropyl ester]	64%		
COCCOCCOP(=O)(OCCOCCOC)C(Cc1ccc(F)c(F)c1)c1sc2ccccc2c1Br (stereo not drawn) [Cpd 210]	62%		
CC(C)OP(=O)(OC(C)C)C(Cc1ccccc1F)c1sc2cc(Br)ccc2c1Br (stereo not drawn) [Cpd 199]		81	
CC(C)OP(=O)(OC(C)C)C(Cc1cc(C(F)(F)F)ccc1Cl)c1sc2ccccc2c1Cl (stereo not drawn) [Cpd 178]	79%		
(R)-[1-(3-Bromo-benzo[b]thiophen-2-yl)-2-(4-fluoro-phenyl)-ethyl]-phosphonic acid diisopropyl ester [Cpd 240]	98% and 77%		
CCCP(=O)(CCC)C(OCc1ccc(F)c(F)c1)c1sc2ccccc2c1C (stereo not drawn) [Cpd 42]		100	
CCOP(=O)(OCC)C(Cc1ccc(C(F)(F)F)cc1)c1cc2ccccc2s1 (stereo not drawn) [Cpd 68]		96	
CCOP(=O)(OCC)C(Cc1cc2c(cc1Cl)OCO2)c1cc2ccccc2s1 (stereo not drawn) [Cpd 112]		42	
CCOP(=O)(OCC)C(Cc1ccccc1Cl)c1sc2ccccc2c1C (stereo not drawn) [Cpd 48]		100	
CCOP(=O)(OCC)C(Cc1cc(O)cc(O)c1)c1sc2ccccc2c1Br (stereo not drawn) [Cpd 322]	45%		
CC(C)OP(=O)(OC(C)C)C(Cc1ccc(C(F)(F)F)cc1)c1sc2ccccc2c1Br (stereo not drawn) [Cpd 336]			% Reversal ([1]; time 1 h): 64%
